Experimental findings from BindingDB's records for doi:10.1021/jm00054a014 (Monsanto Corporate Research, 1993) are described below.

The experiment has as its target T1, Dimer of Gag-Pol polyprotein [489-587] (Human immunodeficiency virus 1, UniProt P12497).
T1 construct: 489-587
Nature of the experiment: Protease Inhibition Assay. The following applies: pH 6.4; 25 °C. The method, then:
IC50 values for inhibition of recombinant HIV protease were determined using the spectrofluorometric assay, which utilized an intramolecularly quenched fluorogenic substrate, 2-(aminobenzoyl)-Thr-Ile-Nle-Phe(p-NO2)-Gln-ArgNH2. Cleavage of the substrate by HIV protease released the fluorescent N-terminal tripeptide from its close apposition to the quenching nitrobenzyl group, resulting in enhanced fluorescence.
Regarding `CNC(=O)N(CC(C)C)C[C@H](O)[C@H](Cc1ccccc1)NC(=O)[C@H](CC(N)=O)NC(=O)OCc1ccccc1` [benzyl N-[(1S)-2-carbamoyl-1-{[(2S,3S)-3-hydroxy-4-[(methylcarbamoyl)(2-methylpropyl)amino]-1-phenylbutan-2-yl]carbamoyl}ethyl]carbamate], the IC50 – broadly, the point on the concentration scale where inhibition reaches its midpoint – is over 10 µM.

Compound `CNC(=O)N(C)C[C@H](O)[C@H](Cc1ccccc1)NC(=O)[C@H](CC(N)=O)NC(=O)OCc1ccccc1` [benzyl N-[(1S)-2-carbamoyl-1-{[(2S,3S)-3-hydroxy-4-[methyl(methylcarbamoyl)amino]-1-phenylbutan-2-yl]carbamoyl}ethyl]carbamate] registered an IC50 of over 10 µM.

As to `CCCCNC(=O)N(C)C[C@H](O)[C@H](Cc1ccccc1)NC(=O)[C@H](CC(N)=O)NC(=O)OCc1ccccc1` [benzyl N-[(1S)-1-{[(2S,3S)-4-[(butylcarbamoyl)(methyl)amino]-3-hydroxy-1-phenylbutan-2-yl]carbamoyl}-2-carbamoylethyl]carbamate], the IC50 was over 10 µM.

For the compound `CCCCNC(=O)N(C)C[C@@H](O)[C@H](Cc1ccccc1)NC(=O)[C@H](CC(N)=O)NC(=O)OCc1ccccc1` [benzyl N-[(1S)-1-{[(2S,3R)-4-[(butylcarbamoyl)(methyl)amino]-3-hydroxy-1-phenylbutan-2-yl]carbamoyl}-2-carbamoylethyl]carbamate], the half-inhibitory concentration (IC50) was over 10 µM.

For `CCCCNC(=O)N(CC(C)C)C[C@H](O)[C@H](Cc1ccccc1)NC(=O)[C@H](CC(N)=O)NC(=O)OCc1ccccc1` [benzyl N-[(1S)-1-{[(2S,3S)-4-[(butylcarbamoyl)(2-methylpropyl)amino]-3-hydroxy-1-phenylbutan-2-yl]carbamoyl}-2-carbamoylethyl]carbamate], the IC50 was over 10 µM.

As for `CNC(=O)N(C)C[C@@H](O)[C@H](Cc1ccccc1)NC(=O)[C@H](CC(N)=O)NC(=O)OCc1ccccc1` [benzyl N-[(1S)-2-carbamoyl-1-{[(2S,3R)-3-hydroxy-4-[methyl(methylcarbamoyl)amino]-1-phenylbutan-2-yl]carbamoyl}ethyl]carbamate], the IC50 was over 10 µM.
